The IC50 is the midpoint of a concentration-inhibition curve.

The structures appear in SMILES notation.

The assay has as its target T1, Recombinant human renin (Homo sapiens, UniProt P00797).
T1 construct: purchased Cayman 10006217
T1 sequence (P00797 67-406): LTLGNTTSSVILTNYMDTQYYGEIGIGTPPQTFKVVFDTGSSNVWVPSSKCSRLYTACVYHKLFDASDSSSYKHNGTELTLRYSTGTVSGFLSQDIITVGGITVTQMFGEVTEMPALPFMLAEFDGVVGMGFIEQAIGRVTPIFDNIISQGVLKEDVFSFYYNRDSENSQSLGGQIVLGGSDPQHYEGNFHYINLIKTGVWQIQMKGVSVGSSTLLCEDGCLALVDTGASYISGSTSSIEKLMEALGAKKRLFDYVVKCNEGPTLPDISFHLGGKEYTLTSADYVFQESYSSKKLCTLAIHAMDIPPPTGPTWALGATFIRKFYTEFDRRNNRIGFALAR
As to the kind of experiment: Inhibition of renin (fluorogenic peptide substrate). The class given is biochemical. The following applies: recombinant human renin 5 nM, fluorogenic peptide substrate 10 μM, 2 h at room temperature, Tris buffer pH 8; compounds tested as the obtained salt. On the procedure: Recombinant human renin (Cayman, no. 10006217) at a concentration of 5 nM was incubated with the test compounds at various concentrations and the synthetic substrate Dabcyl-γ-Abu-Ile-His-Pro-Phe-His-Leu-Val-Ile-His-Thr-EDANS (Bachem, no. M-2050; Dabcyl means the 4-(4-dimethylamino-phenylazo)-benzoyl group and EDANS means the amide with 5-[(2-aminoethyl)amino]-naphthalene-1-sulfonic acid) at a concentration of 10 μM for 2 h at room temperature in 0.05 M Tris buffer (pH 8) containing 0.1 M NaCl, 2.5 mM EDTA and 1.25 mg/ml bovine serum albumin. The increase in fluorescence, which is due to fluorescence resonance energy transfer, was recorded at an excitation wavelength of 330 nm and an emission wavelength of 485 nm in a microplate spectrofluorometer. Inhibitory concentrations IC50 were calculated from the percentage of inhibition of renin activity as a function of the concentration of the test compound. […] Representative IC50 values, which were determined with the compounds in the form of the obtained salt indicated in the examples above, are listed in Table 4.
Consider `CNC(=O)c1ccc2c(-c3ccccc3)c(Cc3cccc(F)c3C)c(C(=O)N3CCNCC3)n2c1` [Example 13, 2-(3-Fluoro-2-methyl-benzyl)-1-phenyl-3-(piperazine-1-carbonyl)-indolizine-6-carboxylic acid methylamide], for which the half-maximal inhibitory concentration (IC50) came to 64 nM.

`Cc1c(F)cccc1Cc1c(C(=O)N2CCN[C@@H](C)C2)c2ccccn2c1-c1ccccc1` [Example 15, [2-(3-Fluoro-2-methyl-benzyl)-3-phenyl-indolizin-1-yl)-((S)-3-methyl-piperazin-1-yl)-methanone]: the IC50 is 76 nM.

As for `Cc1cccc(C)c1Cc1c(-c2ccccc2)c2ccccn2c1C(=O)N1CCN[C@H](C)C1` [Example 17, [2-(2,6-Dimethyl-benzyl)-1-phenyl-indolizin-3-yl)-((R)-3-methyl-piperazin-1-yl)-methanone], the half-maximal inhibitory concentration (IC50) was found to be 870 nM.

Regarding `Cc1c(F)cccc1Cc1c(-c2cccc(F)c2)c2ccccn2c1C(=O)N1CCNCC1` [Example 20, [2-(3-fluoro-2-methyl-benzyl)-1-(3-fluoro-phenyl)-indolizin-3-yl]-piperazin-1-yl-methanone], the IC50 was 3.4 nM.

As for `Cc1c(F)cccc1Cc1c(-c2ccccc2)c2ccccn2c1C(=O)N1CCN[C@@H](CO)C1` [Example 22], the IC50 came out at 100 nM.

In the case of `CNC(=O)CC[C@H]1CN(C(=O)c2c(Cc3cccc(F)c3C)c(-c3ccccc3)c3ccccn23)CCN1` [Example 26], the half-maximal inhibitory concentration (IC50) stood at 230 nM.

For the molecule `COC(=O)CCNC(=O)C[C@H]1CN(C(=O)c2c(Cc3cccc(F)c3C)c(-c3ccccc3)c3ccccn23)CCN1` [Example 30], the IC50 was determined as 31 nM.

Take `Cc1c(F)cccc1Cc1c(-c2ccccc2)c2ccccn2c1C(=O)N1CCN[C@@H](CC(=O)NCCS(C)(=O)=O)C1` [Example 31]: the IC50 came out at 21 nM.

With `Cc1c(F)cccc1Cc1c(-c2ccccc2)c2ccccn2c1C(=O)N1CCN[C@@H](CC(=O)NCc2cccnc2)C1` [Example 32], the IC50 is 38 nM.

For the molecule `COc1ccn2c(C(=O)N3CCNCC3)c(Cc3cccc(F)c3C)c(-c3ccccc3)c2c1` [Example 35, [2-(3-fluoro-2-methyl-benzyl)-7-methoxy-1-phenyl-indolizin-3-yl]-piperazin-1-yl-methanone], the IC50 stood at 28 nM.

On to `Cc1c(F)cccc1Cc1c(-c2ccccc2)c2cc(C(=O)N3CCCCC3)cnn2c1C(=O)N1CCN[C@@H](CC(=O)NCCO)C1` [Example 39], for which the IC50 is 7.4 nM.

With `COCCN(C)C(=O)C[C@H]1CN(C(=O)c2c(Cc3cccc(F)c3C)c(-c3ccccc3)c3cc(C(=O)N(C)C)cnn23)CCN1` [Example 46], the IC50 stood at 10 nM.

(Values after patent US8415336B2, “Cyclic (aza)indolizinecarboxamides, their preparation and their use as pharmaceuticals” (Sanofi, priority 2009, dated 2013).)
